As usually defined, the IC50 is the concentration needed to halve the response being measured.

SMILES strings stand for the structures.

Among the data in patent US20070185176A1, “Heparanase inhibitors and uses thereof” (Insight Bioharmaceuticals Ltd., priority 2004, published 2007) are IC50 values, retold here.

The assay addresses T1, human recombinant heparanase (h-hpa) (Homo sapiens, UniProt Q9Y251).
T1 sequence (Q9Y251 158-543 limits assumed): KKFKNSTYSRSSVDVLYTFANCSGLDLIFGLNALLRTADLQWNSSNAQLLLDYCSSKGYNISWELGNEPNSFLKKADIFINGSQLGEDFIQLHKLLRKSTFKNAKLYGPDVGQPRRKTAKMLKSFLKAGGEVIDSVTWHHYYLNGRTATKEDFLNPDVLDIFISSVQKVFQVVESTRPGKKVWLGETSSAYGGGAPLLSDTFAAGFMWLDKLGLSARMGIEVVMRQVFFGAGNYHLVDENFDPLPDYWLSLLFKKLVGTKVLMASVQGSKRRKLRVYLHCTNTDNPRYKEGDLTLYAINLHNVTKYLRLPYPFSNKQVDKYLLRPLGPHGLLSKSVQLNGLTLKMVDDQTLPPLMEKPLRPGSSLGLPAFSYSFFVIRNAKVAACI
T1 sequence (Q9Y251 36-109 limits assumed): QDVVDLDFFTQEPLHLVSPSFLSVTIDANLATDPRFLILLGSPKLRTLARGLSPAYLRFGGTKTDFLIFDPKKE
The assay can be described thus: In vitro dimethylmethylene blue (DMB) assay for heparanase activity.

Procedure: (a) In Vitro Dimethylmethylene Blue (DMB) Assay for Heparanase Activity
Heparin Sepharose CL-6B beads were added up to the top of the wells of a multiscreen column loader (Millipore). A 96-well multiscreen plate containing 0.65 μm hydrophilic, low protein binding, Durapore membrane (Millipore) was placed, upside down, on top of the multiscreen column loader. The column loader and the multiscreen plate were held together, turned over, and the beads were uniformly transferred from the column loader to the multiscreen plate (Millipore, MADVM 650). Double-distilled water (DDW) was then added to the beads, which were allowed to swell for one minute, and then washed (three times) with DDW under vacuum. Heparin concentration was estimated to be 10 μM/well.
To each well, phosphate-buffered saline (PBS) containing 1% bovine serum albumin (BSA; 70 μl/well) and DMB (32 mg of DMB were dissolved in 5 ml ethanol, diluted to 1 liter with formate buffer containing 4 g sodium formate and 4 ml formic acid; 120 μl/well) were added. Color was developed after 5 minutes, and the absorbance of the samples was determined using a microplate reader (Spectra Max, Molecular Devices) at 530 nm with 570 nm as reference. The absorbance correlated to heparanase activity. As a control, heparanase was added to the heparin Sepharose swollen beads in the multiscreen plate and the heparanase reaction products were filtered immediately thereafter and the absorbance of these control samples was subtracted from all other samples.
The cell extracts were centrifuged and resuspended in 20 mM phosphate citrate buffer, pH 5.4 containing 50 mM NaCl. The cells were lysed by three cycles of freezing and thawing. The cell lysates were centrifuged (10000×g for 5 min), supernatants were collected and then assayed for heparanase activity using the DMB assay.
The partially purified human recombinant heparanase or the crude cell extracts expressing either human or mouse recombinant heparanase were added for a 3-hour incubation and the reaction continued as described above. Absorbance of the developing color was measured as described above.

On to `CCCCCCCCCCC/C=C\CCCCC(=O)Nc1cc(C(=O)O)ccc1Oc1cc(C(=O)O)cc(C(=O)O)c1` [Compound 86], for which the IC50 was found to be 2000 nM.
Regarding `CCCCCCCCCCCCCCCCCCNC(=O)C1CC(=O)N(c2ccc(Oc3ccc(S(=O)(=O)O)cc3)cc2)C1` (stereo not drawn) [Compound 103], the IC50 is 7700 nM.
`CCCCCCCCCCCCCCCCCCN(C)c1ccc(S(=O)(=O)O)cc1NC(=O)c1cc(/N=N/c2cc(NS(=O)(=O)c3ccc(C)cc3)ccc2Cl)c2ccccc2c1O` [Compound 52]: the 50% inhibitory concentration (IC50) turned out to be 740 nM.
On to `CCCCCCCCCCCCCCCCCCNCC(O)Cn1c2ccc(Br)cc2c2cc(Br)ccc21` (stereo not drawn) [Compound 91], for which the concentration for half-maximal inhibition (IC50) amounted to 15000 nM.
As to `CCCCCCCCCCCCCCCC(=O)NC(CN1CCOCC1)C(O)c1ccccc1` (stereo not drawn) [Compound 74], the IC50 turned out to be 19000 nM.
In the case of `CCCCCCCCCCCCCCCC1=CN(c2ccc(S(=O)(=O)O)cc2)C(=O)C1` [Compound 75], the IC50 came out at 1600 nM.
In the case of `CCCCCCCCCCCCCCCCS(=O)(=O)c1ccc(N2N=C(NC(=O)c3ccccc3S(=O)(=O)O)C(/N=N\c3ccc(O)cc3Cl)C2=O)cc1` (stereo not drawn) [Compound 54] it was 200 nM; in that of `CCCCCCCCCCCC1OC1CCCCC(=O)Nc1cc(C(=O)O)ccc1Oc1cc(C(=O)O)cc(C(=O)O)c1` (stereo not drawn) [Compound 87], 400 nM.
Regarding `CCCCCCCCCCCC1OC1CCCCC(=O)Nc1cc(C(=O)O)ccc1Oc1cc(C(N)=O)cc(C(N)=O)c1` (stereo not drawn) [Compound 96], the concentration for half-maximal inhibition (IC50) turned out to be 1600 nM.
In the case of `CCCCCCCCCCCCCCCCCCC(=O)CC(=O)Nc1ccc(Oc2ccc(C(=O)O)cc2)c(C(=O)O)c1` [Compound 51] it was 3000 nM.
Turning to `CCCCCCCCCCCCCCCCCCN(C)c1ccc(S(=O)(=O)O)cc1NC(=O)c1cc(/N=N/c2ccc(NS(=O)(=O)c3ccc(C)cc3)cc2)c2ccccc2c1O` [Compound 45], the IC50 was 500 nM.
In the case of `CCCCCCCCCCCCCCCCCCNC(=O)C1CC(=O)N(c2ccc(Oc3ccc(S(=O)(=O)O)cc3)c(S(=O)(=O)O)c2)C1` (stereo not drawn) [Compound 104], the IC50 worked out at 470 nM.
In the case of `CCCCCCCCCCCC(Cl)C(O)CCCCC(=O)Nc1cc(C(=O)O)ccc1Oc1cc(C(=O)O)cc(C(=O)O)c1` (stereo not drawn) [Compound 93], the concentration for half-maximal inhibition (IC50) was determined as 9150 nM.
Consider `CCCCCCCCCCCCCCCCCCNC(=O)Nc1ccc(S(=O)(=O)O)cc1` [Compound 70], for which the half-maximal inhibitory concentration (IC50) is 7000 nM.
With `CCCCCCCCCCCCCCCCCC1=NN(c2ccc(Oc3ccccc3)c(S(=O)(=O)O)c2)C(=O)C1/N=N/c1ccc(O)c(C(=O)O)c1` (stereo not drawn) [Compound 21], the 50% inhibitory concentration (IC50) was 310 nM.
Regarding `CCCCCCCCCCCCCCCCCCOc1ccc(C(=O)CC(=O)Nc2ccc(Sc3ccccc3C(=O)O)c(C(=O)O)c2)cc1` [Compound 44], the half-inhibitory concentration (IC50) turned out to be 210 nM.
With `CCCCCCCCCCCCCCCC[n+]1ccc(C=NO)cc1` [Compound 80], the half-inhibitory concentration (IC50) came to 17000 nM.
For `CCCCCCCCCCCC(=O)NC1=NN(c2ccc(Oc3ccccc3)c(S(=O)(=O)O)c2)C(=O)C1` [Compound 71], the IC50 turned out to be 2650 nM.
Under `CCCCCCCCCCCCCCCCCCN(C)c1ccc(S(=O)(=O)O)cc1NC(=O)c1cc(/N=N/c2c(Cl)cccc2Cl)c2ccccc2c1O` [Compound 53] stands 400 nM.
As to `CCCCCCCCCCCCCCCCCCN1/C(=C/C=C/c2sc3ccccc3[n+]2CCCCCCCCCCCCCCCCCC)Sc2ccccc21` [Compound 67], the IC50 came to 1500 nM.
In the case of `CCCCCCCCCCCCCCCCCCN(C)c1ccc(S(=O)(=O)O)cc1NC(=O)c1cc(/N=N/c2cccc(NS(=O)(=O)c3ccccc3)c2)c2ccccc2c1O` [Compound 33], the concentration for half-maximal inhibition (IC50) was 210 nM.
In the case of `CCCCCCCCCCCCCCCCCC1=NN(c2ccc(Oc3ccccc3)c(S(=O)(=O)O)c2)C(=O)C1Br` (stereo not drawn) [Compound 6], the IC50 was determined as 250 nM.
Consider `CCCCCCCCCCCCCCCCCCN(C)c1ccc(C(=O)O)cc1NC(=O)c1cc(/N=N/c2cc(C(=O)OC)ccc2O)c2ccccc2c1O` [Compound 62], for which the 50% inhibitory concentration (IC50) was 11600 nM.
On to `CCCCCCCCCCCCCCCCCC1=NN(c2ccc(Oc3ccccc3)c(S(=O)(=O)O)c2)C(=O)C1/N=N/c1cc(OC)ccc1OC` (stereo not drawn) [Compound 8], for which the IC50 is 210 nM.
Consider `CCCCCCCCCCCCCCCCCCNC(=O)C1CC(=O)N(c2ccc(Oc3ccc(C(N)=O)cc3)c(S(=O)(=O)O)c2)C1` (stereo not drawn) [Compound 106, 2-(4-amido-phenoxy)-5-(4-octadecyl-carbamoyl-2-oxo-pyrrolidin-1-yl)-benzene sulfonic acid], for which the IC50 is 300 nM.
`C=CCCCCCCCCC(=O)CCCCCC(=O)Nc1cc(C(=O)O)ccc1Oc1cc(C(=O)O)cc(C(=O)O)c1` [Compound 94]: the IC50 turned out to be 18000 nM.
Consider `CCCCCCCCCCCCCCCCCC1=NN(c2ccc(Oc3ccccc3)c(S(=O)(=O)O)c2)C(=O)C1/N=N/c1ccccc1N(C)C` (stereo not drawn) [Compound 5], for which the IC50 amounted to 220 nM.
`O=C(O)CCCCCCCCCCN1C(=O)/C(=C/c2cccc(Br)c2)SC1=S` [Compound 81]: the half-maximal inhibitory concentration (IC50) is 18000 nM.
Under `CCCCCCCCCCCCCCCCn1c(/N=C/c2cc(Cl)cc(Br)c2O)nc2ccccc21` [Compound 58] stands 3000 nM.
Regarding `CCCCCCCCCCCCCCCCOc1ccc(/C(=N\NS(=O)(=O)c2cc(C(=O)O)cc(C(=O)O)c2)N2CCCCC2)cc1OC` [Compound 76], the IC50 is 3000 nM.
For `CCCCCCCCCCCCCCCCCC1=Nn2c(nc3cc(S(=O)(=O)O)ccc32)C1S(=O)(=O)O` (stereo not drawn) [Compound 35], the IC50 was 1340 nM.
Under `CCCCCCCCCCCCCCCCCCOc1ccc(S(=O)(=O)N/N=C2\N(CC)c3ccccc3C2(C)C)cc1C(=O)O` [Compound 48] stands 950 nM; under `CCCCCCCCCCCCC/C=C/CC(O)(C(=O)Cc1cc(C(=O)O)ccc1Oc1cc(C(=O)O)cc(C(=O)O)c1)C(F)(F)F` (stereo not drawn) [Compound 98], 1500 nM.
Consider `CCCCCCCCCCCCCCCCCC/C=C/c1cc(C(=O)O)c2oc3c(C(=O)O)cccc3c2c1` [Compound 90], for which the IC50 came to 8500 nM.
For `CCCCCCCCCCCCCCCCCCN(C)c1ccc(C(=O)O)cc1NC(=O)c1cc(/N=N/c2cc(C(=O)O)ccc2O)c2ccccc2c1O` [Compound 50], the IC50 worked out at 4500 nM.
On to `CCN1C(=O)/C(=C2\SC(=S)N(CCCCCCCCCCC(=O)O)C2=O)c2ccccc21` [Compound 82], for which the IC50 was determined as 17000 nM.
Take `CCCCCCCCCCCCCCCCCCn1c(-c2ccccc2)nc2cc(S(=O)(=O)O)ccc21` [Compound 102]: the IC50 is 630 nM.
In the case of `CCCCCCCCCCCCCCCCCC(=O)NC1=NN(c2ccc(Oc3ccccc3)c(S(=O)(=O)O)c2)C(=O)C1/N=N/c1ccc(O)c(C(=O)O)c1` (stereo not drawn) [Compound 20] it was 190 nM; in that of `CCCCCCCCCCCCCCCC(=O)OC[C@H](O)C1OC(=O)C(O)=C1O` (stereo partly drawn) [Compound 78], 9000 nM.
For the compound `CCCCCCCCCCCCCCC(=O)NC1=NN(c2ccc(Oc3ccccc3)c(S(=O)(=O)O)c2)C(=O)C1` [Compound 84], the IC50 worked out at 730 nM.
As for `CCCCCCCCCCCCCCCCCCOc1ccccc1C(=O)CC(=O)Nc1cc(NS(=O)(=O)c2cc(C(=O)O)cc(C(=O)O)c2)ccc1Cl` [Compound 64], the IC50 worked out at 290 nM.
For the compound `CCCCCCCCCCNCC(O)Cn1c2ccc(Cl)cc2c2cc(Cl)ccc21` (stereo not drawn) [Compound 68], the half-maximal inhibitory concentration (IC50) came out at 6800 nM.
Take `CCCCCCCCCCCCCCCCCCN(C)c1ccc(S(=O)(=O)O)cc1NC(=O)c1cc(/N=N/c2cc(-c3ccccc3)ccc2O)c2ccccc2c1O` [Compound 34]: the concentration for half-maximal inhibition (IC50) came out at 310 nM.
Under `CCCCCCCCCCCCCCCCCCCCC1=NN(c2ccc(S(=O)(=O)O)cc2N)C(=O)C1` [Compound 14] stands 870 nM.
`CCCCCCCCCCCCCCCCCC1=NN(c2ccc(Oc3ccccc3)c(S(=O)(=O)O)c2)C(=O)C1/N=N/c1ccc(S(=O)(=O)O)cc1` (stereo not drawn) [Compound 25]: the IC50 turned out to be 270 nM.
For `CCCCCCCCCCCCCCCCCC(=O)Nc1ccc(NC(=O)c2cc(/N=N/c3cc(C(=O)O)c(O)cc3O)c3ccccc3c2O)cc1S(=O)(=O)O` [Compound 40], the IC50 stood at 230 nM.
In the case of `CCCCCCCCCCCCCCCCCCNC(=O)c1cc(S(=O)(=O)O)c2ccccc2c1O` [Compound 72], the concentration for half-maximal inhibition (IC50) is 320 nM.
Consider `CCCCCCCCCCCCCCCCS(=O)(=O)c1ccc(S(=O)(=O)O)cc1C(=O)O` [Compound 89], for which the concentration for half-maximal inhibition (IC50) came to 5500 nM.
In the case of `CCCCCCCCCCCC1OC1CCCCC(=O)NC1=NN(c2ccc(Oc3ccccc3)c(S(=O)(=O)O)c2)C(=O)C1` (stereo not drawn) [Compound 100] it was 270 nM.
Take `CCCCCCCCCCCCCCCCCCOc1ccc(C(=O)CC(=O)Nc2ccc(Oc3cccc(C(=O)O)c3)c(C(=O)O)c2)cc1` [Compound 23]: the half-maximal inhibitory concentration (IC50) is 400 nM.
For the compound `CCCCCCCCCCCCCCCCn1c(/N=C/c2c(O)ccc3cc([N+](=O)[O-])ccc23)nc2ccccc21` [Compound 57], the 50% inhibitory concentration (IC50) was 7800 nM.
Turning to `CCCCCCCCCCCCCCCCCCn1c(-c2ccc3ccccc3c2O)nc2cc(S(=O)(=O)O)ccc21` [Compound 42], the IC50 was determined as 480 nM.
Take `CCCCCCCCCCCCCC(=O)NC1=NN(c2ccc(Oc3ccccc3)c(S(=O)(=O)O)c2)C(=O)C1` [Compound 83]: the IC50 came out at 400 nM.
`CCCCCCCCCCCCCCCCCC(=O)Nc1ccc(C(=O)CC(=O)Nc2cc(C(=O)O)ccc2Oc2cc(C(=O)O)cc(C(=O)O)c2)cc1` [Compound 60]: the IC50 is 440 nM.
Under `CCCCCCCCCCCCCCCCCCN(C)c1ccc(S(=O)(=O)O)cc1NC(=O)c1cc(O)c2ccccc2c1` [Compound 77] stands 340 nM.
In the case of `CCCCCCCCCCCCCCCCCCN(C)c1ccc(S(=O)(=O)O)cc1NC(=O)c1cc(S(=O)(=O)O)c2ccccc2c1O` [Compound 41] it was 490 nM.
Regarding `CCCCCCCCCCCCCCCCCC1=NN(c2ccc(-c3nc4cc(S(=O)(=O)O)ccc4s3)cc2)C(=O)/C1=N\c1ccc(N(CC)CC)cc1` [Compound 37], the 50% inhibitory concentration (IC50) was determined as 1500 nM.
